Data: patent US10543185B2, “Method for treating idiopathic pulmonary fibrosis” (The University of Chicago, priority 2015, dated 2020)
Entries after “also recorded” stand apart in the source; their conditions may differ.

Assays:
[1] = system: patients with idiopathic pulmonary fibrosis (IPF); conditions: previous reports (Martinez et al., N Engl J Med. 2014); cited from earlier work
[2] = system: patients with idiopathic pulmonary fibrosis (IPF); experiment: Independent replication cohort (INSPIRE trial and University of Chicago): NAC versus no NAC therapy, genotype-stratified; type: in vivo, human; conditions: for Replication cohort multivariate Cox interaction model coefficient, NAC Therapy term: FVC, DLCO, prednisone use, azathioprine use and study cohort; for Replication cohort multivariate Cox interaction model coefficient, SNP*NAC interaction term: adjusted as in the Table 9 footnote; for Genotype-stratified Composite Endpoint Risk Associated with NAC Therapy, HR: vs no NAC therapy
Source text: The INSPIRE cohort consists of individuals enrolled in the industry-sponsored randomized clinical trial comparing interferon gamma-1b to placebo. […] Clinical and genetic data for patients providing informed consent to genetic testing were used to conduct the analysis. Patients were followed for up to 170 weeks after randomization.
The University of Chicago (UChicago) cohort consists of individuals followed in the UChicago ILD clinic from 2007-2013 who provided informed consent to undergo DNA testing. Patients were followed from time of initial evaluation until death, lung transplantation, loss-to-follow up or time of censoring (Sep. 9, 2013). Vital status was determined using telephone interviews with family members and the social security death index. Patients participating in PANTHER and INSPIRE were removed from the UC cohort.
(§1) To minimize the effects of population stratification, only participants that self-declared a non-Hispanic white ethnicity were included in the analysis. Demographic and clinical information extracted from the datasets included age, gender, race/ethnicity, treatment arm, pulmonary function testing (PFT) including forced vital capacity (FVC) and diffusion capacity for carbon monoxide (DLCO) and outcomes, including death, >10% decline in FVC, hospitalization and lung transplantation.
Hospitalization data were not available for patients in the replication cohort so composite endpoint-free survival was defined as time from trial enrollment (INSPIRE) or blood draw (UChicago) to death, ≥10% FVC decline or transplantation in those not receiving NAC therapy and time from NAC initiation to death, >10% FVC decline or transplantation in those receiving NAC therapy. Because follow-up time was longer for the UChicago compared to INSPIRE cohort, UChicago cohort survival time was censored at 170 weeks to allow for merging of the datasets. All statistical analysis was conducted using Stata (StataCorp. 2011. Release 12. College Station, Tex.).
Based on the findings above, interaction modeling was performed in an independent cohort between NAC therapy and rs3750920 (TOLLIP), rs5743894 (TOLLIP) and rs35705950 (MUC5B). Of the 771 non-Hispanic white individuals enrolled in the INSPIRE trial, DNA was available for 314. In the UChicago cohort, of 151 non-Hispanic white individuals with sequencing data, 91 had longitudinal PFT data and were included in the analysis. A summary of baseline demographic and clinical characteristics, along with genotype counts for the INSPIRE, UChicago and combined cohorts are shown in Table 8.

[3] = system: patients with idiopathic pulmonary fibrosis (IPF); experiment: PANTHER-IPF clinical trial cohort: secondary genotype-stratified survival analysis, NAC or PAN versus placebo; type: in vivo, human; conditions: for Composite Endpoint, %: 10% FVC decline, hospitalization or transplantation; for Treatment-Specific Composite Endpoint Risk, HR / Multivariable Cox interaction model coefficient, therapy term / Multivariable Cox interaction model coefficient, SNP*therapy interaction term: adjusted for age, gender; for Treatment-Specific Composite Endpoint Risk, HR: FVC (% predicted) and DLCO (% predicted); for Multivariable Cox interaction model coefficient, therapy term / Multivariable Cox interaction model coefficient, SNP*therapy interaction term: composite endpoint-free survival, FVC and DLCO; for Progression-Free Survival HR (95% CI) / Hospitalization-Free Survival HR (95% CI): NAC vs placebo
Source text: Single nucleotide polymorphisms (SNPs) within TOLLIP and MUC5B are associated with idiopathic pulmonary fibrosis (IPF) susceptibility and survival. Both genes play critical roles in lung host defense, a process that can be influenced by oxidative stress and modulated by N-acetylcysteine (NAC). Applicants set out to determine whether SNPs within TOLLIP and MUC5B modify the efficacy of NAC therapy in patients with IPF. To achieve this, secondary analysis was completed of the PANTHER-IPF clinical trial (n=154) and an independent replication cohort (n=405) composed of patients from the INSPIRE clinical trial and University of Chicago. SNPs within TOLLIP (rs5743890/rs5743894/rs5743854/rs3750920) and MUC5B ([…]) were genotyped. Multivariable Cox regression with interaction analysis was performed followed by genotype-stratified models for significant interaction SNPs to determine genotype-specific survival associated with NAC therapy. A composite endpoint of death, FVC decline, hospitalization or transplantation was used.
The PANTHER cohort consists of individuals enrolled in the IPFnet randomized clinical trial comparing three treatments: prednisone/azathioprine/N-acetylcysteine (PAN) combination therapy, N-acetylcysteine (NAC) monotherapy and placebo. […] Enrollment resumed for the NAC and placebo arms from January to July 2012, with study completion in 2013. Clinical and genetic data for patients providing informed consent to genetic testing were used to conduct the analysis. Patients were followed for up to 72 weeks after randomization.
as §1
The primary analysis tested whether statistical interaction was present between SNPs of interest and NAC therapy with regard to composite endpoint-free survival, defined as time from trial enrollment to death, ≥10% FVC decline, hospitalization or transplantation. Interaction was formally tested with a multivariable Cox regression model that included the following variables: SNP genotype, NAC therapy, and a SNP*NAC interaction term, age, gender, FVC (% predicted) and DLCO (% predicted). Statistical interaction was considered present when the Wald z-statistic for SNP*NAC interaction term corresponded to a p-value <0.01, which adjusts for multiple testing by Bonferroni correction. Interaction detected by this method was then further explored by constructing genotype-stratified multivariable Cox models to determine genotype-specific endpoint risk associated with NAC therapy. Based on SNP distributions, an additive allelic model was assumed for rs3750920 (TOLLIP) and a dominant model for rs5743890 (TOLLIP), rs5743894 (TOLLIP), rs5743854 (TOLLIP) and rs35705950 (MUC5B). Each model was checked to ensure that the proportional hazards assumption was met.
Of the 341 patients enrolled in the PANTHER trial, 315 self-reported a non-Hispanic white ethnicity (FIG. 2). Of those 315 individuals, 154 consented to genetic testing and were included in the primary analysis. Among genotyped patients, fifty-four patients received placebo therapy and […] patients received NAC therapy. Baseline demographic and clinical characteristics between non-Hispanic white genotyped (n=154) and non-genotyped (n=161) patients stratified by treatment group are shown in Table 1. […]

[4] = system: patients with idiopathic pulmonary fibrosis (IPF); conditions: trial stopped early; cited from earlier work
[5] = INSPIRE cohort, NAC recipients (n = 29)
[6] = UChicago cohort, NAC recipients (n = 18)
[7] = combined replication cohort, NAC recipients (n = 47)
[8] = PANTHER genotyped patients, NAC arm (n = 60)
[9] = PANTHER non-genotyped patients, NAC arm (n = 61)

## CC(=O)N[C@@H](CS)C(=O)O [NAC, (2R)-2-acetamido-3-sulfanylpropanoic acid]
[1]
  Benefit of therapy in patients with IPF, unselected by genotype: no benefit; also recorded: did not provide benefit; also recorded: ineffective
[2]; [5]
  Composite Endpoint, %: (48.3) %
  Death, %: (20.7) %
  FVC Decline ≥10%, %: (44.8) %
  Transplant, %: (6.9) %
[2]; [6]
  Composite Endpoint, %: (72.2) %
  Death, %: (72.2) %
  FVC Decline ≥10%, %: (22.2) %
  Transplant, %: (0) %
[2]; [7]
  Composite Endpoint, %: (57.5) %
  FVC Decline ≥10%, %: (36.2) %
  Transplant, %: (4.3) %
[2]; model with rs3750920 (TOLLIP), adjusted for age, gender
  Replication cohort multivariate Cox interaction model coefficient, NAC Therapy term: 1.37
[2]; model with rs5743894 (TOLLIP), term printed as rs3750920*NAC interaction
  Replication cohort multivariate Cox interaction model coefficient, SNP*NAC interaction term: −0.40
[2]; model with rs5743894 (TOLLIP), adjusted for age, gender
  Replication cohort multivariate Cox interaction model coefficient, NAC Therapy term: 0.54
[2]; model with rs35705950 (MUC5B), adjusted for age, gender
  Replication cohort multivariate Cox interaction model coefficient, NAC Therapy term: 1.24
[2]; replication cohort, FIG. 3, p=0.03
  Unadjusted Kaplan-Meier survival among NAC recipients, rs3750920 TT genotype versus CC or CT genotype: significantly better overall survival
[2]; replication cohort, rs3750920 (TOLLIP) CC, adjusted for age, gender, FVC and DLCO
  Genotype-stratified Composite Endpoint Risk Associated with NAC Therapy, HR: 3.51
[2]; replication cohort, rs3750920 (TOLLIP) CT
  Genotype-stratified Composite Endpoint Risk Associated with NAC Therapy, HR: 2.27
[2]; replication cohort, rs3750920 (TOLLIP) TT
  Genotype-stratified Composite Endpoint Risk Associated with NAC Therapy, HR: 0.23
[2]; replication cohort, rs35705950 (MUC5B) GG
  Genotype-stratified Composite Endpoint Risk Associated with NAC Therapy, HR: 3.15
[2]; replication cohort, rs35705950 (MUC5B) GT/TT
  Genotype-stratified Composite Endpoint Risk Associated with NAC Therapy, HR: 0.94
[2]; rs3750920 (TOLLIP) interaction
  Replication cohort multivariate Cox interaction model coefficient, SNP*NAC interaction term: −0.86
[2]; rs35705950 (MUC5B) interaction
  Replication cohort multivariate Cox interaction model coefficient, SNP*NAC interaction term: −1.30
[3]; [8]
  Death, %: (1.7) %
  FVC Decline ≥10%, %: (18.3) %
  Hospitalization, %: (13.3) %
  Transplant, %: (5) %
[3]; PANTHER genotyped patients, NAC arm (n = 60), death
  Composite Endpoint, %: (31.7) %
[3]; [9]
  Death, %: (4.9) %
  FVC Decline ≥10%, %: (27.9) %
  Hospitalization, %: (14.8) %
  Transplant, %: (1.6) %
[3]; PANTHER non-genotyped patients, NAC arm (n = 61), death
  Composite Endpoint, %: (42.6) %
[3]; genotyped PANTHER patients
  Treatment-Specific Composite Endpoint Risk, HR: 0.92
[3]; model with rs3750920 (TOLLIP)
  Multivariable Cox interaction model coefficient, therapy term: 1.34
[3]; model with rs5743890 (TOLLIP)
  Multivariable Cox interaction model coefficient, therapy term: 0.17
[3]; model with rs5743894 (TOLLIP)
  Multivariable Cox interaction model coefficient, therapy term: 0.45
[3]; model with rs35705950 (MUC5B)
  Multivariable Cox interaction model coefficient, therapy term: 0.91
[3]; non-genotyped PANTHER patients
  Treatment-Specific Composite Endpoint Risk, HR: 1.31
[3]; rs3750920 (TOLLIP) CC genotype, death, 10% FVC decline or transplant
  Progression-Free Survival HR (95% CI): 1.27 (0.21-7.55)
[3]; rs3750920 (TOLLIP) CC genotype, death, hospitalization or transplant
  Hospitalization-Free Survival HR (95% CI): 3.74 (0.35-39.80)
[3]; rs3750920 (TOLLIP) CT genotype
  Hospitalization-Free Survival HR (95% CI): 0.45 (0.10-2.15)
  Progression-Free Survival HR (95% CI): 0.63 (0.17-2.30)
[3]; rs3750920 (TOLLIP) TT genotype
  Progression-Free Survival HR (95% CI): 0.09 (0.01-0.76)
[3]; rs3750920 (TOLLIP) interaction
  Multivariable Cox interaction model coefficient, SNP*therapy interaction term: −1.47
[3]; rs5743890 (TOLLIP) interaction
  Multivariable Cox interaction model coefficient, SNP*therapy interaction term: −1.17
[3]; rs5743894 (TOLLIP) AA genotype
  Hospitalization-Free Survival HR (95% CI): 1.43 (0.44-4.70)
  Progression-Free Survival HR (95% CI): 1.68 (0.58-4.90)
[3]; rs5743894 (TOLLIP) AG/GG genotype
  Hospitalization-Free Survival HR (95% CI): 0.21 (0.02-1.99)
[3]; rs5743894 (TOLLIP) interaction
  Multivariable Cox interaction model coefficient, SNP*therapy interaction term: −1.42
[3]; rs35705950 (MUC5B) GG genotype
  Hospitalization-Free Survival HR (95% CI): 1.25 (0.15-10.30)
  Progression-Free Survival HR (95% CI): 3.72 (0.69-20.16)
[3]; rs35705950 (MUC5B) GG/TT genotype as printed in Table 7 (text: GT or TT)
  Hospitalization-Free Survival HR (95% CI): 0.49 (0.15-1.58)
[3]; rs35705950 (MUC5B) interaction
  Multivariable Cox interaction model coefficient, SNP*therapy interaction term: −1.40

B1: interferon gamma-1b: study drug of the INSPIRE randomized clinical trial, compared to placebo (protein, UniProt P01579 24-161, looked up)
Interferon gamma: QDPYVKEAENLKKYFNAGHSDVADNGTLFLGILKNWKEESDRKIMQSQIVSFYFKLFKNFKDDQSIQKSVETIKEDMNVKFFNSNKKKRDDFEKLTNYSVTDLNVQRKAIHELIQVMAELSPAAKTGKRKRSQMLFRG
modifications: interferon gamma-1b
notes: study drug of the INSPIRE randomized clinical trial, compared to placebo
[4]
  Benefit compared to placebo at interim analysis: no benefit
